Values joined by “and” are separate entries in the source; they are usually repeats but may differ in a detail not shown here. Equal values may be shown once. Read-outs that look alike come from different tables or passages of the source.
Legend:
Staphylococcus aureus = assay: agar-dilution MIC; assay type: cell-based
Hemophilus influenzae = assay: agar-dilution MIC; assay type: cell-based; details: Table 17
Bacteroides fragilis = assay: agar-dilution MIC; assay type: cell-based; details: Table 14
Text: (§1) The agar-dilution procedure described by the International Collaborative study (ICS) group was used to determine the minimum inhibitory concentrations (MIC's).

[1] = system: Staphylococcus epidermidis; assay: agar-dilution MIC; assay type: cell-based; details: Table 17
Text: as §1

Streptococcus pneumoniae = assay: agar-dilution MIC; assay type: cell-based; details: Streptococcus pneumoniae Park I; Table 17
Text: as §1

Streptococcus pyogenes = assay: agar-dilution MIC; assay type: cell-based; details: Streptococcus pyogenes C203; Table 17
Text: as §1

[2] = system: Streptococcus sp. (Group D); assay: agar-dilution MIC; assay type: cell-based; details: Table 17
Text: as §1

[3] = system: Bacteroides thetaiotaomicron; assay type: cell-based; details: Bacteroides thetaiotaomicron 1438; Table 14
Text: as §1

Propionibacterium acnes = assay: agar-dilution MIC; assay type: cell-based; details: Propionibacterium acnes 79; Table 14
Text: Antibiotic A41030 factors A, B and C have also been tested and found to be active against a genus of anaerobic bacteria identified as Propionibacterium acnes.

Clostridium difficile = assay type: cell-based
Clostridium perfringens = assay type: cell-based; details: Clostridium perfringens 81; Table 14
Clostridium septicum = assay: agar-dilution MIC; assay type: cell-based; details: Clostridium septicum 1128; Table 14
Eubacterium aerofaciens = assay: agar-dilution MIC; assay type: cell-based; details: Eubacterium aerofaciens 1235; Table 14
[4] = system: Peptostreptococcus anaerobius; assay: agar-dilution MIC; assay type: cell-based; details: Peptostreptococcus anaerobius 1428; Table 14
[5] = system: Peptostreptococcus intermedius; assay: agar-dilution MIC; assay type: cell-based; details: Peptostreptococcus intermedius 1264; Table 14
[6] = system: Bacteroides melaninogenicus; assay: agar-dilution MIC; assay type: cell-based; details: Table 14
Fusobacterium symbiosum = assay: agar-dilution MIC; assay type: cell-based; details: Fusobacterium symbiosum 1470; Table 14
Escherichia coli = assay: agar-dilution MIC; assay type: cell-based; details: Escherichia coli TEM; Table 17
Text: The results after reading the which follows.

electrometric titration = assay type: physicochemical; details: electrometric titration in 66% dimethylformamide in water
Text: Antibiotic A41030 factor A is a white, crystalline solid.

solubility = assay type: physicochemical
Bacteroides corrodens = assay: agar-dilution MIC; assay type: cell-based; details: Bacteroides corrodens 1874; Table 14
Bacteroides vulgatis = assay: agar-dilution MIC; assay type: cell-based; details: Bacteroides vulgatis 1211; Table 14
Peptococcus prevoti = assay: agar-dilution MIC; assay type: cell-based; details: Peptococcus prevoti 1281; Table 14
[7] = system: Peptococcus asaccharolyticus; assay: agar-dilution MIC; assay type: cell-based; details: Peptococcus asaccharolyticus 1302; Table 14
Procedure: The MIC values were determined by the agar-dilution method, and are recorded in Table 15, which follows.

[8] = system: Fusobacterium necrophorum; assay: agar-dilution MIC; assay type: cell-based; details: Fusobacterium necrophorum 6054A; Table 14
Staph. aureus = assay: experimental bacterial infection in mice; assay type: in vivo; details: two doses subcutaneously
Procedure: All of the A41030 factors tested have shown in vivo antimicrobial activity against experimental bacterial infections. When two doses of test compound were administered subcutaneously to mice in illustrative infections, the activity observed is measured as an ED50 value [effective dose in mg./kg. to protect fifty percent of the test animals: See Warren Wick, et al., J. Bacteriol. 81, 233-235 (1961)].

[9] = Staphylococcus aureus S13E, Table 17
[10] = Staphylococcus epidermidis EPI1
[11] = Clostridium difficile 78, Table 16
[12] = Clostridium difficile 107B, Table 16
[13] = Clostridium difficile 111F, Table 16
[14] = Clostridium difficile 1153, Table 16
[15] = Clostridium difficile 2634, Table 16
[16] = Clostridium difficile 3424-5B, Table 16
[17] = Clostridium difficile 3816, Table 16
[18] = Clostridium difficile 6890, Table 16
[19] = Clostridium difficile 8484, Table 16
[20] = Clostridium difficile A-194, Table 16
[21] = Clostridium difficile A-195, Table 16
[22] = Clostridium difficile A-196, Table 16
[23] = Clostridium difficile A-279, Table 16
[24] = Clostridium difficile A-280, Table 16
[25] = Clostridium difficile A-281, Table 16
[26] = Clostridium difficile WAL-2112, Table 16
[27] = Clostridium difficile WAL-3657, Table 16
[28] = Clostridium difficile WAL-4268, Table 16
[29] = Bacteroides melaninogenicus 2736

Substance: A41030 factor D
- MIC (Staphylococcus aureus; [9]): 0.25 µg/mL
- MIC (Hemophilus influenzae; Haemophilus influenzae 76): 8 µg/mL
- MIC (Hemophilus influenzae; Haemophilus influenzae C.L.): 8 µg/mL
- MIC (Bacteroides fragilis; Bacteroides fragilis 111): 32 µg/mL
- MIC (Bacteroides fragilis; Bacteroides fragilis 1877): 32 µg/mL
- MIC (Bacteroides fragilis; Bacteroides fragilis 1936B): 32 µg/mL
- MIC [1, 10]: 0.25 µg/mL
- MIC ([1]; Staphylococcus epidermidis EPI2): 1 µg/mL
- MIC (Streptococcus pneumoniae): 0.5 µg/mL
- MIC (Streptococcus pyogenes): 0.5 µg/mL
- MIC ([2]; Streptococcus sp. Group D 9960): 1 µg/mL
- MIC ([2]; Streptococcus sp. Group D X66): 1 µg/mL
- MIC [3]: 32 µg/mL
- MIC (Propionibacterium acnes): 0.25 µg/mL
- MIC (Clostridium difficile; [11]): ≤ 0.25 µg/mL
- MIC (Clostridium difficile; [12]): ≤ 0.25 µg/mL
- MIC (Clostridium difficile; [13]): ≤ 0.25 µg/mL
- MIC (Clostridium difficile; [14]): 1.0 µg/mL
- MIC (Clostridium difficile; [15]): 0.5 µg/mL
- MIC (Clostridium difficile; [16]): 0.5 µg/mL
- MIC (Clostridium difficile; [17]): 0.5 µg/mL
- MIC (Clostridium difficile; [18]): 0.5 µg/mL
- MIC (Clostridium difficile; [19]): ≤ 0.25 µg/mL
- MIC (Clostridium difficile; [20]): ≤ 0.25 µg/mL
- MIC (Clostridium difficile; [21]): ≤ 0.25 µg/mL
- MIC (Clostridium difficile; [22]): 0.5 µg/mL
- MIC (Clostridium difficile; [23]): ≤ 0.25 µg/mL
- MIC (Clostridium difficile; [24]): ≤ 0.25 µg/mL
- MIC (Clostridium difficile; [25]): 0.5 µg/mL
- MIC (Clostridium difficile; [26]): ≤ 0.25 µg/mL
- MIC (Clostridium difficile; [27]): ≤ 0.25 µg/mL
- MIC (Clostridium difficile; [28]): ≤ 0.25 µg/mL
- MIC (Clostridium perfringens): 0.5 µg/mL
- MIC (Clostridium septicum): 0.25 µg/mL
- MIC (Eubacterium aerofaciens): 0.5 µg/mL
- MIC [4]: 0.5 µg/mL
- MIC [5]: 1.0 µg/mL
- MIC ([6]; Bacteroides melaninogenicus 1856/28): > 64 µg/mL
- MIC [6, 29]: 0.5 µg/mL
- MIC (Fusobacterium symbiosum): 0.5 µg/mL
- MIC (Escherichia coli): 64 µg/mL
- possibly additional pKa's (electrometric titration): > 10
- solubility (solvents) (solubility): soluble in the same solvents as factor A
- MIC (Bacteroides corrodens): 32 µg/mL
- MIC (Bacteroides vulgatis): 32 µg/mL
- MIC (Peptococcus prevoti): 0.25 µg/mL

Substance: A41030 factor E
- MIC (Staphylococcus aureus; [9]): 0.25 µg/mL
- MIC (Staphylococcus aureus; in µg/mL): 0.125 and 0.25
- MIC (Hemophilus influenzae; Haemophilus influenzae 76): 8 µg/mL
- MIC (Hemophilus influenzae; Haemophilus influenzae C.L.): 8 µg/mL
- MIC (Bacteroides fragilis; Bacteroides fragilis 111): 64 µg/mL
- MIC (Bacteroides fragilis; Bacteroides fragilis 1877): 32 µg/mL
- MIC (Bacteroides fragilis; Bacteroides fragilis 1936B): 64 µg/mL
- MIC [1, 10]: 0.25 µg/mL
- MIC (Streptococcus pneumoniae): 0.25 µg/mL
- MIC (Streptococcus pyogenes): 0.25 µg/mL
- MIC ([2]; Streptococcus sp. Group D 9960): 1 µg/mL
- MIC ([2]; Streptococcus sp. Group D X66): 1 µg/mL
- MIC [3]: 64 µg/mL
- MIC (Propionibacterium acnes): 0.5 µg/mL
- MIC (Clostridium difficile; [11]): 0.5 µg/mL
- MIC (Clostridium difficile; [12]): 0.5 µg/mL
- MIC (Clostridium difficile; [13]): 0.5 µg/mL
- MIC (Clostridium difficile; [14]): 1.0 µg/mL
- MIC (Clostridium difficile; [15]): 1.0 µg/mL
- MIC (Clostridium difficile; Clostridium difficile 2994, Table 14): 0.5 µg/mL
- MIC (Clostridium difficile; [16]): 0.5 µg/mL
- MIC (Clostridium difficile; [17]): 0.5 µg/mL
- MIC (Clostridium difficile; Clostridium difficile 3950D, Table 16): 0.5 µg/mL
- MIC (Clostridium difficile; [18]): 0.5 µg/mL
- MIC (Clostridium difficile; [19]): 0.5 µg/mL
- MIC (Clostridium difficile; [20]): 0.5 µg/mL
- MIC (Clostridium difficile; [21]): 0.5 µg/mL
- MIC (Clostridium difficile; [22]): 1.0 µg/mL
- MIC (Clostridium difficile; [23]): 0.5 µg/mL
- MIC (Clostridium difficile; [24]): 0.5 µg/mL
- MIC (Clostridium difficile; [25]): 1.0 µg/mL
- MIC (Clostridium difficile; [26]): 0.5 µg/mL
- MIC (Clostridium difficile; [27]): 0.5 µg/mL
- MIC (Clostridium difficile; [28]): 0.5 µg/mL
- MIC (Clostridium perfringens): 1.0 µg/mL
- MIC (Clostridium septicum): 0.5 µg/mL
- MIC (Eubacterium aerofaciens): 0.5 µg/mL
- MIC [7]: ≤ 0.25 µg/mL
- MIC [4]: 32 µg/mL
- MIC [5]: 32 µg/mL
- MIC [6, 29]: 32 µg/mL
- MIC (Fusobacterium symbiosum): 1.0 µg/mL
- MIC [8]: 0.5 µg/mL
- ED50 (Staph. aureus): < 0.31 mg/kg
- possibly additional pKa's (electrometric titration): > 10
- solubility (solvents) (solubility): soluble in the same solvents as factor A
- MIC (Bacteroides corrodens): 64 µg/mL
- MIC (Bacteroides vulgatis): 32 µg/mL
- MIC (Peptococcus prevoti): 32 µg/mL

Reference: US4604239A, “Antibiotics” (Eli Lilly and Company, priority 1985, dated 1986)
